Data from patent US20120029068A1, “TRANSDERMAL FLUID” (MALAYSIAN PALM OIL BROARD A/K/A MPOB, priority 2007, published 2012).
Where two headings read alike, the source gives them in different places.

Legend:
ZR-75-1 cells = details: absence and presence of estradiol and tamoxifen; cited from earlier work
[1] = rats fed 50 mg of α-T3 or α-T, α-T3 vs α-T; cited from earlier work
[2] = test system: human breast cancer cells; details: cited from earlier work; for anti-proliferative and pro-apoptotic effects / inhibition of breast cancer cell growth: human breast cancer cells
MCF-7 = details: absence and presence of estradiol and tamoxifen; cited from earlier work
MCF-7 cells = details: α-T combined with tamoxifen; cited from earlier work
MDA-MB-231 cells = details: cited from earlier work
prostate cancer cell = details: comparison between homologues; cited from earlier work
Splenocytes = assay: MTT viability assay of splenocytes; type: cell-based, BALB/c mice; details: splenocytes of treated mice, addition of concanavalin A or OVA
Description: Viability of the cells was measured by the MTT assay. In this assay MTT is converted to a blue formazan product by dehydrogenases that are active in living cells. Splenocytes were seeded with concanavalin A or OVA in a 96 well plate in a total volume of 200 μl of medium. MTT (25 μl of 5 mg/ml) was added to each well. After 4 hours, 100 μl of extraction buffer consisting of 20% SDS dissolved in a 50% dimethyl formamide/50% water solution at pH 4.0 was added. The blue colour formed was measured at 590 nm.
The MTT assay uses the principle whereby cell growth or cell death is indicated by the conversion or lack of conversion of the tetrazolium salt to the coloured product, formazan, the concentration of which can be measured spectrophotometrically.

[3] = mouse, in vivo
Description: BALB/c mice were divided into 2 groups. Control group only received ethanol the carrier whilst the experimental group was treated with 1 mg of δ-tocotrienols daily for 4 weeks. It was applied on the back to examine subcutaneous absorption.
Female BALB/c mice 3 to 4 weeks old were obtained from the Animal Breeding Unit, Institute for Medical Research (IMR), Kuala Lumpur, Malaysia. […] The control animals were treated with ethanol alone whilst the experimental groups were applied daily with 0.5 ml of a 20 mg/ml concentration to deliver 1 mg of δ-tocotrienol.
The tocopherols and tocotrienols were analysed by HPLC. The system used was a Shimadzu LC-10AT HPLC coupled with a Shimadzu Model RF-10AXL fluorescence spectrophotometer, Shimadzu Class VP data acquisition software, and silica column (YMC A-012/150×6 mm I.D, 5 μm). The eluting solvent was hexane/isopropyl alcohol (99.5/0.5 v/v) at a flow rate of 2.0 ml/min. The detector was set at excitation wavelength of 295 nm and emission wavelength of 325 nm. 500 mg adipose tissue was homogenized with 4:1:1 mixture of hexane:ethanol and 0.9% sodium chloride at 10000 rpm for 5 minutes. The homogenate was then centrifuged at 2000 rpm for 5 minutes. The resulting supernatant was filtered and evaporated using a rotary evaporator. A known amount of lipid sample was dissolved in a 10 ml volumetric flask using the eluting solvent and 10 μl of the solution was injected into the HPLC system. A standard solution of a mixture of α, γ, and δ-tocotrienols was also injected accordingly. Quantification of the major components of vitamin E was carried out by comparing the peak areas of the components with those of the standards.

IFN-γ = IFN-γ ELISA on splenocytes of mice immunized with OVA; type: in vivo, BALB/c mice; details: transdermal δ-T3 vs control
Description: (§1) The mice were further immunized subcutaneously with ovalbumin (50 μg) adjuvanted in alum. Interferon-gamma (IFN-γ) was measured upon antigen specific stimulation of OVA.
The experimental mice were sacrificed using ether. Spleen was removed aseptically into RPMI complete medium and single cell suspension was made by teasing out the splenocytes from the spleen capsule. Before culture, cells were stained with 0.4% Trypan Blue Stain (GIBCO, Invitrogen Corp, New Zealand) and cell viability count was performed using a haemocytometer. The spleen cell suspension was diluted to give a 5×10^6 cells/ml solution and Concanavalin A (Sigma-Aldrich Inc, St Louis Mo., USA) was added at a final concentration of 25 μg/ml. 200 μl of this suspension was plated on to 96-well flat-bottomed tissue culture plates (Becton Dickinson, USA) and left in a humidified CO2 incubator at 37° C. for 72 hours. At the end of each incubation period, the plate was removed from the incubator and stored at −70° C. The plates were thawed prior to performing ELISA.
The tissue culture plates that were frozen at […] were thawed. […] The supernatant was analysed by ELISA to quantify the amount of IFN-γ and IL-4 produced following the in vitro stimulation with Concanavalin A. ELISA was performed using ELISA kits for mouse IFN-γ and IL-4 (BD, Pharmingen) as recommended by the manufacturers.

B-lymphocytes = assay: Single colour flow cytometry with leukocyte marker antibodies, B-lymphocytes; type: in vivo, BALB/c mice; details: whole blood, δ-tocotrienol group compared to control
Description: as §1
(§2) Fluorescein isothiocyanate (FITC) or Phycoerythrin-labeled antibodies were diluted by adding 20 μl of antibody to 50 μl of Staining Buffer in separate tubes. 100 μl of whole blood from mouse was added to each tube and mixed gently. The samples were then incubated for one hour at room temperature in the dark. After incubation, 2 ml of RBC Lysis Buffer was added into each tube and mixed gently. Samples were then centrifuged at 400 g for 5 minutes at room temperature. A wash step was carried out by adding 2 ml of Staining Buffer and samples were again centrifuged at 400 g for 5 minutes at room temperature. Supernatant was removed and 200 μl Staining Buffer was added into each tube followed by 204 μl of 4% Formalin. Samples were analysed using Flow Cytometer.

[4] = test system: natural killer cells (NK); assay: Single colour flow cytometry with leukocyte marker antibodies, NK cells; type: in vivo, BALB/c mice; details: whole blood, δ-tocotrienol group compared to control
Description: as §1, §2

CC(C)=CCC/C(C)=C/CC/C(C)=C/CC[C@]1(C)CCc2c(C)c(O)c(C)c(C)c2O1 [α-T3, α-tocotrienol]
proliferation of ZR-75-1 cells (ZR-75-1 cells): inhibited proliferation
concentration in adipose tissue and skin [1]: significantly higher
anti-proliferative and pro-apoptotic effects / inhibition of breast cancer cell growth [2]: potent anti-proliferative and pro-apoptotic effects
proliferation of MCF-7 (MCF-7): inhibited proliferation

Cc1c(C)c2c(c(C)c1O)CC[C@@](C)(CCC[C@H](C)CCC[C@H](C)CCCC(C)C)O2 [α-T, α-tocopherol]
increase of the IC50 for tamoxifen (MCF-7 cells): more than 1000 fold
effect on growth inhibitory effects of tamoxifen (MDA-MB-231 cells): completely blocked
anti-proliferative and pro-apoptotic effects / inhibition of breast cancer cell growth [2]: no effect

CC(C)=CCC/C(C)=C/CC/C(C)=C/CC[C@]1(C)CCc2cc(O)c(C)c(C)c2O1 [γ-T3, γ-tocotrienol]
proliferation of ZR-75-1 cells (ZR-75-1 cells): inhibited proliferation
effect on prostate cancer cell growth (prostate cancer cell): greater anti-proliferative effects than γ-T
anti-proliferative and pro-apoptotic effects / inhibition of breast cancer cell growth [2]: potent anti-proliferative and pro-apoptotic effects
proliferation of MCF-7 (MCF-7): inhibited proliferation

Cc1c(O)cc2c(c1C)O[C@](C)(CCC[C@H](C)CCC[C@H](C)CCCC(C)C)CC2 [γ-T, γ-tocopherol, reference compound]
effect on prostate cancer cell growth (prostate cancer cell): much stronger inhibitory effect

CC(C)=CCC/C(C)=C/CC/C(C)=C/CC[C@]1(C)CCc2cc(O)cc(C)c2O1 [δ-T3, δ-tocotrienol]
splenocyte growth (MTT OD reading) (Splenocytes): grew normally
changes in tocotrienol levels in blood, spleen and liver [3]: only seen at week 4
concentration in adipose and subcutaneous fat tissue at week 3 [3]: drop in concentration
time of optimum concentration in breast and abdominal adipose and subcutaneous fat tissue [3]: 2 week
δ-T3 in breast and abdominal adipose and subcutaneous fat tissue [3]: significant increases
IFN-γ in splenocytes (IFN-γ): significantly higher
IFN-γ in splenocytes (IFN-γ; listed as δ-tocotrienols): significant increase
B-lymphocytes (B-lymphocytes): significantly increased
B-lymphocytes (B-lymphocytes; listed as δ-tocotrienols): increase
proliferation of ZR-75-1 cells (ZR-75-1 cells): inhibited proliferation
natural killer cells [4]: significantly increased
natural killer cells ([4]; listed as δ-tocotrienols): increase
synergistic efficacy with Tamoxifen ([2]; breast cancer): highest synergistic efficacy
anti-proliferative and pro-apoptotic effects / inhibition of breast cancer cell growth [2]: potent anti-proliferative and pro-apoptotic effects
anti-proliferative and pro-apoptotic effects / inhibition of breast cancer cell growth ([2]; listed as δ-tocotrienol): most effective inhibitor
proliferation of MCF-7 (MCF-7): inhibited proliferation
